According to ChEMBL document CHEMBL1201862, “PubChem BioAssay data set” (2004):
Activity calls are given as the source filed them.

Legend:
[1] = molecular target: Ion channel NompC (Danio rerio, UniProt Q7T1G6); assay: Fluorescence counterscreen assay for TRPML3 agonists: dose response cell-based high-throughput screening assay to identify agonists of the transient receptor potential channel N1 (TRPN1). [Related pubchem assays: 1526, 1424, 1448 ]; assay type: functional
[2] = molecular target: ATP-dependent molecular chaperone HSP82 (Candida albicans (strain WO-1) (Yeast), UniProt C4YTQ8); assay: steroid-induced GRE reporter decrease in yeast – S. cerevisiae, luminescence, Hsp90 inhibitor project, dose response (AID 2400); assay type: functional, cell-based;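 further: beta-galactosidase luminescence from glucocorticoid response element reporter as proxy for Hsp90 function; inhibitor potency where signal loss means Hsp90 inhibition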
[3] = NIH-3T3 fibroblast cytotoxicity, dose response, cytotoxicity control, cell-based, fluorescence, Alamar Blue, secondary assay (AID 2327); assay type: functional;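 further: NIH-3T3 mouse fibroblasts cultured with fluconazole at 8 µg/mL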
[4] = fluconazole-exposed Candida albicans growth modulators – fluorescence, retest, confirmation (AID 2467); assay type: functional, cell-based
[5] = molecular target: T1, Mucolipin-3 (Homo sapiens, UniProt Q8TDD5); assay: Dose response cell-based high-throughput screening assay for agonists of the transient receptor potential channel ML3 (TRPML3). [Related pubchem assays: 1526, 1424, 1448 ]; assay type: functional
T1 sequence (Q8TDD5 whole entry): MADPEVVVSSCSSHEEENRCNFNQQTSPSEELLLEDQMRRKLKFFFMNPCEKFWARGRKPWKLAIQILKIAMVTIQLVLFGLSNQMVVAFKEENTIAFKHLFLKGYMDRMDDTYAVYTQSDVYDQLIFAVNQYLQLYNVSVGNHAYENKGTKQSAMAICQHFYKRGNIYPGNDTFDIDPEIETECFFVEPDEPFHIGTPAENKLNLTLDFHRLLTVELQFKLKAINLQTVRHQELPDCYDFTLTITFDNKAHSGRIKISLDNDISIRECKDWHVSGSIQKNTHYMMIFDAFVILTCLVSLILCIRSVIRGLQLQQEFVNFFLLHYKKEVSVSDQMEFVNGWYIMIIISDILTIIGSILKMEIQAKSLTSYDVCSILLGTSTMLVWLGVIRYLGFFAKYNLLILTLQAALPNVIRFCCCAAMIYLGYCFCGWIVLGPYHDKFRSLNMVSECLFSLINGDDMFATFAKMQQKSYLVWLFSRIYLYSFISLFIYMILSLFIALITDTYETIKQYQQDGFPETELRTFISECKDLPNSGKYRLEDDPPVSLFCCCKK

[6] = molecular target: Serine/threonine-protein phosphatase (Candida dubliniensis (strain CD36 / CBS 7987 / NCPF 3949 / NRRLY-17841) (Yeast), UniProt B9W6M3); assay: blockers of CaCl2-induced CDRE-lacZ signaling – S. cerevisiae, luminescence, secondary, dose response (AID 2388); assay type: functional, cell-based;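 further: yeast reporter cells carrying a calcineurin-responsive lacZ construct stimulated with calcium chloride; luminescent beta-galactosidase reporter signal in whole cells rather than isolated phosphatase activity; potency for inhibition where a drop in reporter signal means calcineurin blockade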
Sequence of Serine/threonine-protein phosphatase (B9W6M3 whole entry): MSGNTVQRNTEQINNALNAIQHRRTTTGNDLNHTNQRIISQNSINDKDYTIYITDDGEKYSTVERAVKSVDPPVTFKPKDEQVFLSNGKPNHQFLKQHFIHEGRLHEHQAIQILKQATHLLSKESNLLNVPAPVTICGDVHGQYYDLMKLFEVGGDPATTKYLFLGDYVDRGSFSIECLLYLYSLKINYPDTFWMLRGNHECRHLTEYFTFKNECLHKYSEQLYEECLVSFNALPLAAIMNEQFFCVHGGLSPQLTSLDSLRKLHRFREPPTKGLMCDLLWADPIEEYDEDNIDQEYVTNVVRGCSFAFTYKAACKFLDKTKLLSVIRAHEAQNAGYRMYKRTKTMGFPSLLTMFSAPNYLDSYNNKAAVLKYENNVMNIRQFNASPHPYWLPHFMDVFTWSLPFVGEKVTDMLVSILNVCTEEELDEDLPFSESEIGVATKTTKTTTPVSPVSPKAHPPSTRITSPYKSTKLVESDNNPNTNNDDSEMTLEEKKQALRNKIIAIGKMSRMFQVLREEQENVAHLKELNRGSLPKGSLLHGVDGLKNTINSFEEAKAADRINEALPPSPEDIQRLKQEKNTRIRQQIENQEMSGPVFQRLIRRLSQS

[7] = tested on: Escherichia coli; assay: microbe, parasite or virus in culture
[8] = tested on: Escherichia coli; assay: microbe, parasite or virus in culture; remark: listed apart in the source
[9] = Luminescence Cell-Based Dose Response HTS to Identify Inhibitors of 5'UTR Stem-Loop Driven Prion Protein mRNA Translation in H4 Neuroglioblastoma Cells. [Related pubchem assays: 1827 (Project Summary), 1813 (Primary HTS)]; assay type: functional
[10] = alpha-synuclein stem-loop luciferase translation blockers – H4 neuroglioma cells, luminescence, confirmation (AID 1988); assay type: functional, cell-based
[11] = luciferase reporter signal suppression in cells – H4 neuroglioma cells, luminescence, dose response (AID 1990); assay type: functional, cell-based
[12] = tested on: BJ; assay: growth inhibition of engineered Ras-driven BJ cells – cell-based, alamar blue fluorescence, cherrypicked samples, dose response (AID 2631); assay type: functional; details: Homo sapiens;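 further: confirmatory dose-response assay in RAS-dependent BJ fibroblasts engineered with TERT, LT and ST, with cytotoxicity read by fluorescence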
[13] = molecular target: Beta-2 adrenergic receptor (Homo sapiens, UniProt P07550); assay: ADRB2 activation measured by internalization – cell-based, FAP fluorogen, flow cytometry, cherry pick 1, dose response (AID 588763); assay type: functional
Sequence of Beta-2 adrenergic receptor (P07550 whole entry): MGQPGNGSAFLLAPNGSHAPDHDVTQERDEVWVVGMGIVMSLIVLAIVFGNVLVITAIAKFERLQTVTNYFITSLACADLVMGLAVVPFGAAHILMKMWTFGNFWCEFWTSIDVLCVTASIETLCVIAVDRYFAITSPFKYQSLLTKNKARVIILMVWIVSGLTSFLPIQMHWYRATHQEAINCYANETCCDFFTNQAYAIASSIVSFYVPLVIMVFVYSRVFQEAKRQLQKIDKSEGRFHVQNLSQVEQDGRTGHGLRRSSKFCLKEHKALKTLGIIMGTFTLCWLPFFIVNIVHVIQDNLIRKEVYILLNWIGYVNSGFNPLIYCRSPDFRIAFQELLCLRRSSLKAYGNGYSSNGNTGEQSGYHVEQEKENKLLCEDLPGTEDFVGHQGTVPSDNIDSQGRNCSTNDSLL

[14] = Trypanosoma cruzi growth suppression in host cells – NIH3T3 host cells, beta-gal luminescence, confirmation (AID 2044); assay type: functional, cell-based;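 further: intracellular parasites grown in NIH/3T3 mouse fibroblasts as host cells; luminescent beta-galactosidase reporter signal from transgenic T. cruzi replicating inside host cells; inhibitors lower the luminescence signal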
[15] = NIH3T3 cell viability loss – ATP luminescence, mouse fibroblasts, counter-screen, dose response (AID 2010); assay type: functional, cell-based;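 further: cells exposed to compound for about 90 hours before reading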
[16] = molecular target: Mu-type opioid receptor (Homo sapiens, UniProt P35372); assay: (§1) Counterscreen for agonists of heterodimerization of the mu 1 (OPRM1) and delta 1 (OPRD1) opioid receptors: Luminescence-based cell-based high throughput dose response assay to identify agonists of OPRM1 homodimerization.; assay type: functional
Sequence of Mu-type opioid receptor (P35372 whole entry): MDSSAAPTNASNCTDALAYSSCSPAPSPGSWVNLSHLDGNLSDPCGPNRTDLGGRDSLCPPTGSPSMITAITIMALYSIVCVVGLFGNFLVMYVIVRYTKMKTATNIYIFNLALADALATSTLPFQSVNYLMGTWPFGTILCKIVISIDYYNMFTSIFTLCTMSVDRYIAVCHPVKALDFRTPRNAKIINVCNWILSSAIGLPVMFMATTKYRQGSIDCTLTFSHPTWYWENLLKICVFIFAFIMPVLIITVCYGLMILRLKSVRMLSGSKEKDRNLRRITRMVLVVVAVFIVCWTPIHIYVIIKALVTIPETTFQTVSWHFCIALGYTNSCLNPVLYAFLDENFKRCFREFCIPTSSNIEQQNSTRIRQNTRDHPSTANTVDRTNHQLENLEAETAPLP

[17] = molecular target: T2, Short transient receptor potential channel 4 (Mus musculus, UniProt Q9QUQ5); assay: calcium entry via TRPC4 opening agents – cell-based, HEK293 TRPC4/mu-opioid, Fluo-4 calcium, dose response (AID 434937); assay type: functional
T2 sequence (Q9QUQ5 whole entry): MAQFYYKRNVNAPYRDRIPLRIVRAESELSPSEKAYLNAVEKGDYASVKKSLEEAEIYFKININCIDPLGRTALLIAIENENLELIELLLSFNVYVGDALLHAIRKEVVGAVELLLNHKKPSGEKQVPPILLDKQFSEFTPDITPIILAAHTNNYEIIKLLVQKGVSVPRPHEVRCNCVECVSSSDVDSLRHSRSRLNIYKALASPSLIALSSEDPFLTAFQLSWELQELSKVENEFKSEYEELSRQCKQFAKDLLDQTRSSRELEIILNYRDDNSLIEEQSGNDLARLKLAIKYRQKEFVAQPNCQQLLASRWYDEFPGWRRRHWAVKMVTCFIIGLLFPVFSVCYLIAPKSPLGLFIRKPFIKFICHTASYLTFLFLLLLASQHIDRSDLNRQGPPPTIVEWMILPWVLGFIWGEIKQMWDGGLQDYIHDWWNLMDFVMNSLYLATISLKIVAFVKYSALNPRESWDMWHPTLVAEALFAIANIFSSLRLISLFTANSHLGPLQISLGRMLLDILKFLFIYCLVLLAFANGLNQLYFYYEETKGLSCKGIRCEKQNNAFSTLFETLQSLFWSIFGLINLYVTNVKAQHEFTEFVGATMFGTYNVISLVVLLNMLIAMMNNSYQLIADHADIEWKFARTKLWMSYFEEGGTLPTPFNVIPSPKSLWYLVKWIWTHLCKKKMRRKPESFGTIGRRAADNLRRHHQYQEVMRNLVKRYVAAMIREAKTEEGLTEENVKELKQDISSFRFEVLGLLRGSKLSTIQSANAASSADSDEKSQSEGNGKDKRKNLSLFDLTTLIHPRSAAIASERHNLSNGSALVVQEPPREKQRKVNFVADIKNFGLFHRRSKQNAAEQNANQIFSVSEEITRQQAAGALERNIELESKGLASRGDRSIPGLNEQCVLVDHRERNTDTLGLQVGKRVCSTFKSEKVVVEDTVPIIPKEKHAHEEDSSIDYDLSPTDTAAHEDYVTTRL

[18] = molecular target: Delta-type opioid receptor (Homo sapiens, UniProt P41143); assay: as §1, with “of OPRD1” for “of OPRM1”, “homodimerization. [Related pubchem assays (depositor defined):AID504326, AID504355, AID504692, AID504904, AID504905]” for “homodimerization.”; assay type: functional
Sequence of Delta-type opioid receptor (P41143 whole entry): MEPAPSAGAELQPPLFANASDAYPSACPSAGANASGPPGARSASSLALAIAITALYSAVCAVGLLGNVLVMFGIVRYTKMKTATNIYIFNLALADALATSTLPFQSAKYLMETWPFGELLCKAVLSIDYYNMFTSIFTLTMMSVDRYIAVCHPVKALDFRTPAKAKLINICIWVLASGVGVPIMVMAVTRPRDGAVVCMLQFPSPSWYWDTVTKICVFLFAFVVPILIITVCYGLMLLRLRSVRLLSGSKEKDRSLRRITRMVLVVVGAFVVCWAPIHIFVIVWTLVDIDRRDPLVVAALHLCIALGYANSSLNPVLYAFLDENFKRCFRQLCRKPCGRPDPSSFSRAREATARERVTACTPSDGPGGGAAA

[19] = molecular target: 5-hydroxytryptamine receptor 5A (Homo sapiens, UniProt P47898); assay: Counterscreen for agonists of OPRM1-OPRD1 heterodimerization: luminescence-based cell-based high throughput dose response assay to identify agonists of 5-hydroxytryptamine (serotonin) 5A receptor (HTR5A). [Related pubchem assays (depositor defined):AID504326, AID504355, AID504692, AID504904, AID504905]; assay type: functional
Sequence of 5-hydroxytryptamine receptor 5A (P47898 whole entry): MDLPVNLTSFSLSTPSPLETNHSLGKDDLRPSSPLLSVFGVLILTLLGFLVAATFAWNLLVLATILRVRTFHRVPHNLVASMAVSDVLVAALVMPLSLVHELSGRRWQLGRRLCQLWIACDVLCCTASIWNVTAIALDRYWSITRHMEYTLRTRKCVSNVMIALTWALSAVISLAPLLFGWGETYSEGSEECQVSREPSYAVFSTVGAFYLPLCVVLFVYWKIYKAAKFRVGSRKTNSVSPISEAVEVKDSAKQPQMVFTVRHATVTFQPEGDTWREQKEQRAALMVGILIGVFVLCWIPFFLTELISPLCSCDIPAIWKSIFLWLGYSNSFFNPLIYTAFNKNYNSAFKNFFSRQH

[20] = molecular target: T3, Nuclear receptor subfamily 0 group B member 1 (Homo sapiens, UniProt P51843); assay: Luminescence-based cell-based high throughput dose response assay for inhibitors of the orphan nuclear receptor subfamily 0, group B, member 1 (DAX1; NR0B1). [Related pubchem assays (depositor defined):AID504766, AID504790]; assay type: functional
T3 sequence (P51843 whole entry): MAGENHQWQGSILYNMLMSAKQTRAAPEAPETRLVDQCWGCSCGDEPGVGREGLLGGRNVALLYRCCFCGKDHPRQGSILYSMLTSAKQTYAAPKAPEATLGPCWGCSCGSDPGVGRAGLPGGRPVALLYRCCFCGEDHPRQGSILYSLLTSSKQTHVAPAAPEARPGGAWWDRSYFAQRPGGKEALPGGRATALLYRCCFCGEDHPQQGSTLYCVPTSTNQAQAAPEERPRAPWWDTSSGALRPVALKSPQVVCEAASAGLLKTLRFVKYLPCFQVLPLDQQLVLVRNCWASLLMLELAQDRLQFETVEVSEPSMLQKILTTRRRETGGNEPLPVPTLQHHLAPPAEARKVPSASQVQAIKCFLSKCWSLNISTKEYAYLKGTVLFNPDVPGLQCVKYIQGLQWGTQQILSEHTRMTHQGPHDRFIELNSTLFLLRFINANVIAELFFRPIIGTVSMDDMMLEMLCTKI

[21] = tested on: HEK293; assay: cells; assay type: functional, cell-based; details: Homo sapiens
[22] = molecular target: FAD-linked sulfhydryl oxidase ALR (Homo sapiens, UniProt P55789); assay: ALR-catalysed DTT oxidation blockers – biochemical, H2O2 detection, luminescence, cherry-pick, dose response (AID 493248)
Sequence of FAD-linked sulfhydryl oxidase ALR (P55789 whole entry): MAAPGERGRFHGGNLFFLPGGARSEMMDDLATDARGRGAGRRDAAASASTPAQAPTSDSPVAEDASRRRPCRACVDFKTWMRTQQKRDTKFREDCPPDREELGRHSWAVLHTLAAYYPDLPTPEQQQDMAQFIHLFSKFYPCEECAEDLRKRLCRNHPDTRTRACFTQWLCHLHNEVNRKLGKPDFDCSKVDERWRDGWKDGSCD

[23] = molecular target: CAAX prenyl protease 1 (Saccharomyces cerevisiae S288c, UniProt P47154); assay: yeast CAAX protease Ste24 inhibition – biochemical, S. cerevisiae, plate reader, cherry-pick, dose response (AID 488815)
Sequence of CAAX prenyl protease 1 (P47154 whole entry): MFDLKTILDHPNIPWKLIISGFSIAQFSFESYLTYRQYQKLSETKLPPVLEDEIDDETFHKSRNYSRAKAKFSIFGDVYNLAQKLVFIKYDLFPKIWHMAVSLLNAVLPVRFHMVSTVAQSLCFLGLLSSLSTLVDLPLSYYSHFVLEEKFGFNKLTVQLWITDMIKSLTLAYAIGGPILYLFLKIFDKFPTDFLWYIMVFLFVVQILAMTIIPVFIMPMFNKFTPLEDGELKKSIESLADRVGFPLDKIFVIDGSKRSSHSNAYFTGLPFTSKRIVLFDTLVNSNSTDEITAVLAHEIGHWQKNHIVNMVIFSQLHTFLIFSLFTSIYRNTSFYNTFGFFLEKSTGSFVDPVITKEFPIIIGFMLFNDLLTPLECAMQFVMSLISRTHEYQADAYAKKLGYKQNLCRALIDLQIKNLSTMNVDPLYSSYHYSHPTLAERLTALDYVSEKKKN

[24] = molecular target: T4, CAAX prenyl protease 2 (Saccharomyces cerevisiae S288c, UniProt Q03530); assay type: biochemical
T4 sequence (Q03530 whole entry): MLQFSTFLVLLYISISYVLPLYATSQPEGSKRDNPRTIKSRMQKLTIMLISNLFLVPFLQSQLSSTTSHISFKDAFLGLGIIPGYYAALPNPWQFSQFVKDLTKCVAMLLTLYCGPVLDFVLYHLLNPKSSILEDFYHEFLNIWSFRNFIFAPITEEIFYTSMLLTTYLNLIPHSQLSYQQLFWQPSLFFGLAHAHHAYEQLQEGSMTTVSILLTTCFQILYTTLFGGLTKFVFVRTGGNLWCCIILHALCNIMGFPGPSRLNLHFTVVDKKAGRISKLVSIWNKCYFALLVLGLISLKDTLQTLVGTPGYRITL

[25] = molecular target: CAAX prenyl protease 2 (Homo sapiens, UniProt Q9Y256); assay: inhibition of Ras-converting CAAX protease Rce1 – biochemical, yeast membranes, quenched-peptide fluorescence, cherry-pick, dose response (AID 588849)
Sequence of CAAX prenyl protease 2 (Homo sapiens, UniProt Q9Y256) (Q9Y256 whole entry): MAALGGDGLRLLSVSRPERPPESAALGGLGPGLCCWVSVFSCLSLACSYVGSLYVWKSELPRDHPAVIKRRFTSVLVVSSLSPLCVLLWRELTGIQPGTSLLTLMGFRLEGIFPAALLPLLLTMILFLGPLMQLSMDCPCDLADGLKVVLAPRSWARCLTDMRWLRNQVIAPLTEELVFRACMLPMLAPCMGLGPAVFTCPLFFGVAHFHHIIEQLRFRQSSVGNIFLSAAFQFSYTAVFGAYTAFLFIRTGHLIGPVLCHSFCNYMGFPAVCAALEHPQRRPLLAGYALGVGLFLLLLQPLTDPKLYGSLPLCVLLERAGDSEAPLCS

Sequence of Ion channel NompC (Q7T1G6 whole entry): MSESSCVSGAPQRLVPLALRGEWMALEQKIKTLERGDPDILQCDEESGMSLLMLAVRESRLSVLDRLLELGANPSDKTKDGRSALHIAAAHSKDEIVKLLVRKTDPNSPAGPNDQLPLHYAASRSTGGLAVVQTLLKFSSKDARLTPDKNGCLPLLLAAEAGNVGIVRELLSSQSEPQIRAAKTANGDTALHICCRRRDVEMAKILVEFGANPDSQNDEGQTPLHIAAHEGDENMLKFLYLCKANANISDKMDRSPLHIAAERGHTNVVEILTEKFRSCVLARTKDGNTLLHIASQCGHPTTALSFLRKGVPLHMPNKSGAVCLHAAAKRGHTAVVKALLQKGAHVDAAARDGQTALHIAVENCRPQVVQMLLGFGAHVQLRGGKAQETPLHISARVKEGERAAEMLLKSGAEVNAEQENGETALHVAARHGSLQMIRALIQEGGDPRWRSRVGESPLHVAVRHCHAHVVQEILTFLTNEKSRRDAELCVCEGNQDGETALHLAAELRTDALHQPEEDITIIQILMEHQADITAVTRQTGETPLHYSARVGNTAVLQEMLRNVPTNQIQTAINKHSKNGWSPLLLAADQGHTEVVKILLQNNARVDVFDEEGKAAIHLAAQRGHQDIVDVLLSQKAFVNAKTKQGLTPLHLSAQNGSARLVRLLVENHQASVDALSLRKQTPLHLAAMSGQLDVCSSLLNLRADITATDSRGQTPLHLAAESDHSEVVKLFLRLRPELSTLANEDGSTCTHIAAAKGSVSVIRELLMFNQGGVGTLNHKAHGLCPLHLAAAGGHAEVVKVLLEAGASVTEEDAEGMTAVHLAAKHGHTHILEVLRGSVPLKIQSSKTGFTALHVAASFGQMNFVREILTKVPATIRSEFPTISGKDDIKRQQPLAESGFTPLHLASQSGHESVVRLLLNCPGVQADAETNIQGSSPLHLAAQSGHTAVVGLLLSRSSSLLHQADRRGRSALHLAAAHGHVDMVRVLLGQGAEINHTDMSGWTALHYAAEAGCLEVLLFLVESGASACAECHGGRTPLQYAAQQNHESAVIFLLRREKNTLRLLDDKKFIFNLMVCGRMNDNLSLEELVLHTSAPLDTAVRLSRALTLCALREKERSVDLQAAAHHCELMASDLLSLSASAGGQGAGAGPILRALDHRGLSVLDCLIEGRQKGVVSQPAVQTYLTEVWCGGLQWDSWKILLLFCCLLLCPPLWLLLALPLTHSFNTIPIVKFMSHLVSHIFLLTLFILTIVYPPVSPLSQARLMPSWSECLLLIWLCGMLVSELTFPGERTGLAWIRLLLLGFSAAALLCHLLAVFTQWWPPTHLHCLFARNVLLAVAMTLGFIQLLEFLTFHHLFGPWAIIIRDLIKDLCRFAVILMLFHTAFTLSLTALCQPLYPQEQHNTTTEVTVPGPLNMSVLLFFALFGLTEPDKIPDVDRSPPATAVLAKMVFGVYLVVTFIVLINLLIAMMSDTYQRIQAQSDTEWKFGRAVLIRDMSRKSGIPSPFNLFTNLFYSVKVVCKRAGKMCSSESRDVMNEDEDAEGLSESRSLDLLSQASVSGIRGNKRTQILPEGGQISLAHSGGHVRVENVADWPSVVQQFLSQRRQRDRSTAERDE

Q: With Cc1ccc(S(=O)(=O)N(C)c2ccc(OCC(=O)Nc3nnc(C4CC4)s3)cc2)cc1 as the compound, how does the EC50 [1] read?
A: > 29.9 µM (not active)

Q: And the EC50 [2]?
A: > 150 µM (inactive)

Q: What about the EC50 [3] of the same compound?
A: > 150 µM (inactive)

Q: And the EC50 [4]?
A: 3.05 µM (active)

Q: What about the EC50 [5] of the same compound?
A: 4.38 µM (active)

Q: And the EC50 [6]?
A: > 180 µM (inactive)

Q: With Cc1nc(NS(=O)(=O)c2ccccc2)sc1NC(=O)Nc1ccc(Cl)cc1 as the compound, how does the AC50 [7] read?
A: > 380 µM (inactive)

Q: And the AC50 [8]?
A: 27 µM (active)

Q: Which EC50 [9] does the source give for COc1cccc(Cn2c(-c3nonc3N)nc3ccccc32)c1 here?
A: 24.7 µM (active)

Q: What about the EC50 [10] of the same compound?
A: 2.69 µM (active)

Q: What about the EC50 [11] of the same compound?
A: 9.54 µM (active)

Q: What about the EC50 [12] of the same compound?
A: 0.455 µM (active)

Q: With NC(=O)CC(NC(=O)c1ccccc1)c1ccc(NCCCN2CCCC2=O)c([N+](=O)[O-])c1 (centres undefined) as the compound, how does the EC50 [13] read?
A: 1.4 µM (active)

Q: Which results are given for Cc1cc(Cl)c2oc(C(=O)N3CCN(c4ccncc4)CC3)c(C)c2c1?
A: EC50 [14]: 1.28 µM (active); EC50 [15]: 7.17 µM (active); EC50 [13]: 86.2 µM (inactive)

Q: With COCC1CCN(Cc2cn(-c3ccccc3F)nc2-c2cc(C)sc2C)CC1 as the compound, how does the EC50 [16] read?
A: > 92.5 µM (inactive)

Q: What about the EC50 [17] of the same compound?
A: 1.88 µM (active)

Q: What about the EC50 [18] of the same compound?
A: > 92.5 µM (inactive)

Q: What about the EC50 [19] of the same compound?
A: > 92.5 µM (inactive)

Q: Which IC50 [20] does the source give for Clc1ccccc1Nc1nc(-c2cccnc2)cs1 here?
A: > 67.5 µM (inactive)

Q: And the IC50 [21]?
A: > 67.5 µM (inactive)

Q: With COc1cc(C(=O)NC2CCN(C)CC2)ccc1Nc1ncc2c(n1)N(Cc1ccccc1)CCC(=O)N2C as the compound, how does the IC50 [20] read?
A: > 67.5 µM (inactive)

Q: And the IC50 [21]?
A: > 67.5 µM (inactive)

Q: Which AC50 [7] does the source give for O=C1CN2C(=Nc3ccc(Br)cc3C2c2ccccc2)CCN1 (centres undefined) here?
A: 81.5 µM (active)

Q: With COc1ccc(/C=N/NC(=O)c2[nH]c3ccc(C)cc3c2-c2ccccc2)c(C(=O)O)c1OC as the compound, how does the AC50 [22] read?
A: 3.71 µM (active)

Q: And the AC50 [23]?
A: 1.76 µM (active)

Q: What about the AC50 [24] of the same compound?
A: 5.21 µM (active)

Q: And the AC50 [25]?
A: 3.14 µM (active)
